{"source": "patent US20030176499A1", "about": "“Use of fibrates for the preparation of a medicament useful in the treatment of congestive heart failure” (priority 2003, published 2003)", "key": {"[1]": {"test_system": "male Wistar rats with left ventricular hypertrophy induced by constriction of the abdominal aorta", "experiment": "Evaluation of cardiac function in rats with aortic constriction (left ventricular catheter)", "format": "in vivo, rat", "details": "anaesthetised rats with aortic constriction, clofibrate 0.2% in the feed for 12 weeks, mean ± standard deviation", "protocol": "(§1) Animal-housed male Wistar rats weighing 100-120 g were used: 5 per cage (cage size: 425 mm×266 mm×180 mm with a sawdust litter) at a temperature of […] and 50±15% humidity with a 12/12 h light/darkness cycle and with 15-20 air changes/hour. The animals were fed with LP ALTROMIN (REIPER) feed and spring water ad libitum\n(§2) Left ventricular hypertrophy was induced in rats anaesthetised with Nembutal sodium, by means of constriction of the abdominal aorta with a clip (Ø0.8 mm) placed in the abdominal aorta between the diaphragm and the renal branches; one group of animals, which was then used as a control group, underwent the same operation but was not submitted to constriction of the aorta (shams).\n(§3) The animals were thus randomly assigned to the following groups:\n(§4) CLO: operated on with aortic constriction and treated for 12 weeks, from the day after the operation with clofibrate 0.2% in the feed (60-100 mg/kg/day (n=11).\nAt the end of treatment, cardiac function was evaluated, in the animals anaesthetised with Nembutal sodium, by means of a polyethylene catheter inserted in the left ventricle via the carotid and connected up to a pressure transducer (Statham p23 XL) and to an amplifier (Biomedica Mangoni bm 61).\nThe parameters recorded were: heart rate, ventricular systolic and end-diastolic pressure, and the positive and negative derivatives of ventricular pressure, which were recorded on a personal computer by means of a special data acquisition system (IDAS). The measurements were taken for a period of 30 minutes.\nThe data were expressed as mean ± standard deviation and were compared using Student's t-test for independent data. Differences with P<0.05 were regarded as statistically significant."}, "[2]": {"test_system": "male Wistar rats with left ventricular hypertrophy induced by constriction of the abdominal aorta", "details": "rats with aortic constriction, clofibrate 0.2% in the feed for 12 weeks, mean ± standard deviation", "protocol": "as §1, §2, §3, §4\nAt the end of the experiments the animals were sacrificed by means of a lethal dose of Nembutal, the abdominal cavity was opened, the organs were exteriorised in order to verify correct positioning of the aortic clip, and the heart, lungs and liver were then removed and carefully dried and weighed after macroscopic observation of any abnormalities.\nThe data were expressed as mean ± standard deviation and were compared using Student's t-test for independent data. […]"}}}
{"compound": "CCOC(=O)C(C)(C)Oc1ccc(Cl)cc1", "note": "[CLO, clofibrate]", "values": [{"measurement": "DP/dt max = positive derivative of ventricular pressure", "setting": "[1]", "result": "16108 ± 1115", "unit": "eC mm Hg/sec"}, {"measurement": "DP/dt min = negative derivative of ventricular pressure", "setting": "[1]", "result": "9556 ± 560", "unit": "bA mm Hg/sec"}, {"measurement": "DP/dtmax/LVSP (positive derivative normalised for ventricular systolic pressure)", "setting": "[1]", "result": "77 ± 5", "unit": "s⁻¹"}, {"measurement": "HR = heart rate", "setting": "[1]", "result": "401 ± 16", "unit": "b/min"}, {"measurement": "LDevP/HW (developed pressure normalised for ventricular weight)", "setting": "[1]", "result": "13.3 ± 1.5", "unit": "aC"}, {"measurement": "LVEDP = left ventricular end-diastolic pressure", "setting": "[1]", "result": "7.2 ± 1.2", "unit": "mmHg"}, {"measurement": "LVSP = left ventricular systolic pressure", "setting": "[1]", "result": "206 ± 5", "unit": "aB mm Hg"}, {"measurement": "LdevP developed pressure", "setting": "[1]", "result": "207 ± 7", "unit": "cA mm Hg"}, {"measurement": "VW/BW (ventricular weight (mg) / body weight (g))", "setting": "[2]", "result": "3.33 ± 0.20", "unit": "a"}]}
